Results on 6 compounds are retold here after patent publication US20230250066A1, “HERBICIDAL CINNOLINE DERIVATIVES” (SYNGENTA CROP PROTECTION AG, priority 2020, published 2023).

Holding throughout (assay type): in vivo
The subject of experiment [1] is Amaranthus retoflexus (AMARE). The experiment is described as follows: Post-emergence herbicidal test. Particulars: 1000 g/ha unless otherwise stated, evaluated after 13 days. The method in brief:
(§1)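 Scored 0–5 for percent damage (0=0%, 5=81-100%) 13 days after spraying, typically at 1000 g/ha in acetone/water (50:50) plus 0.5% Tween 20. Post-emergence plants treated at 8 days old, grown at 24° C/16° C day/night, 14 h light, 65% humidity, watered twice daily.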

For experiment [2], the system named is Zea mays (ZEAMX). The experiment is described as follows: Post-emergence herbicidal test. To be noted: 1000 g/ha unless otherwise stated, evaluated after 13 days. In a few lines: as §1
Experiment [3] deals with Setaria faberi (SETFA). The experiment is described as follows: Post-emergence herbicidal test. To be noted: 1000 g/ha unless otherwise stated, evaluated after 13 days. In a few lines: as §1
The test system of experiment [4] is Abutilon theophrasti (ABUTH). The experiment can be described thus: Post-emergence herbicidal test. To be noted: 1000 g/ha unless otherwise stated, evaluated after 13 days. In a few lines:
as §1

In experiment [5] the test system is Echinochloa crus-galli (ECHCG). The experiment is described as follows: Post-emergence herbicidal test. To be noted: 1000 g/ha unless otherwise stated, evaluated after 13 days. In a few lines: as §1
For experiment [6], the system named is Ipomoea hederacea (IPOHE). The experiment is described as follows: Post-emergence herbicidal test. Particulars: 1000 g/ha unless otherwise stated, evaluated after 13 days. In a few lines:
as §1

In experiment [7] the test system is Setaria faberi (SETFA). The experiment can be described thus: Pre-emergence herbicidal test. Particulars: 1000 g/ha, evaluated after 13 days.
Experiment [8] relates to Echinochloa crus-galli (ECHCG). The experiment can be described thus: Pre-emergence herbicidal test. Particulars: 1000 g/ha, evaluated after 13 days.
Experiment [9] deals with Zea mays (ZEAMX). The experiment is described as follows: Pre-emergence herbicidal test. Particulars: 1000 g/ha, evaluated after 13 days.
Experiment [10] concerns Amaranthus retoflexus (AMARE). The experiment is described as follows: Pre-emergence herbicidal test. Particulars: 1000 g/ha, evaluated after 13 days.
In experiment [11] the test system is Abutilon theophrasti (ABUTH). The experiment can be described thus: Pre-emergence herbicidal test. Particulars: 1000 g/ha, evaluated after 13 days.
In experiment [12] the test system is Ipomoea hederacea (IPOHE). The experiment is described as follows: Pre-emergence herbicidal test. Particulars: 1000 g/ha, evaluated after 13 days.

As to `CCOC(=O)c1nn(-c2ccc(OC(F)(F)F)cc2)c2cccc([S+]([O-])CC(F)(F)F)c2c1=O` (stereo not drawn) [Compound P38, ethyl 4-oxo-5-(2,2,2-trifluoroethylsulfinyl)-1-[4-(trifluoromethoxy)phenyl]cinnoline-3-carboxylate], the “percentage damage caused to the plant, AMARE (five-point scale)” value in experiment [1] was 1 (1=10-20%). For the same compound, the “percentage damage caused to the plant, ZEAMX (five-point scale)” value in experiment [2] is given as 1 (1=10-20%). Further, in [3], the “percentage damage caused to the plant, SETFA (five-point scale)” value is 1 (1=10-20%). In addition, the “percentage damage caused to the plant, ABUTH (five-point scale)” value in experiment [4] is listed as 1 (1=10-20%). Further, the “percentage damage caused to the plant, ECHCG (five-point scale)” value in experiment [5] is listed as 0 (0=0%). Further, in experiment [6], the “percentage damage caused to the plant, IPOHE (five-point scale)” value is 0 (0=0%). For the same compound, in [7], the “percentage damage caused to the plant, five-point scale, SETFA” value is recorded as 0 (0=0%). The “percentage damage caused to the plant, five-point scale, ECHCG” value in experiment [8] is listed as 0 (0=0%). The “percentage damage caused to the plant, five-point scale, ZEAMX” value in experiment [9] is 0 (0=0%). In addition, in experiment [10], the “percentage damage caused to the plant, five-point scale, AMARE” value was 0 (0=0%). The “percentage damage caused to the plant, five-point scale, ABUTH” value in [11] is 0 (0=0%). Besides, the “percentage damage caused to the plant, five-point scale, IPOHE” value in experiment [12] is recorded as 0 (0=0%).

`CCOC(=O)c1nn(-c2ccc(OC(F)(F)F)cc2)c2cccc(SCC(F)(F)F)c2c1=O` [Compound P39, ethyl 4-oxo-5-(2,2,2-trifluoroethylsulfanyl)-1-[4-(trifluoromethoxy)phenyl]cinnoline-3-carboxylate]: the “percentage damage caused to the plant, AMARE (five-point scale)” value in experiment [1] is listed as 0 (0=0%). Moreover, the “percentage damage caused to the plant, ZEAMX (five-point scale)” value in experiment [2] is recorded as 1 (1=10-20%). In experiment [3], the “percentage damage caused to the plant, SETFA (five-point scale)” value is 0 (0=0%). The “percentage damage caused to the plant, ABUTH (five-point scale)” value in experiment [4] is 1 (1=10-20%). The “percentage damage caused to the plant, ECHCG (five-point scale)” value in experiment [5] was 0 (0=0%). In addition, the “percentage damage caused to the plant, IPOHE (five-point scale)” value in [6] is given as 1 (1=10-20%). Besides, the “percentage damage caused to the plant, five-point scale, SETFA” value in experiment [7] is 0 (0=0%). Besides, the “percentage damage caused to the plant, five-point scale, ECHCG” value in experiment [8] is reported as 0 (0=0%). Also, in experiment [9], the “percentage damage caused to the plant, five-point scale, ZEAMX” value is reported as 0 (0=0%). The “percentage damage caused to the plant, five-point scale, AMARE” value in [10] is listed as 1 (1=10-20%). The “percentage damage caused to the plant, five-point scale, ABUTH” value in [11] is listed as 0 (0=0%). Moreover, the “percentage damage caused to the plant, five-point scale, IPOHE” value in experiment [12] is recorded as 0 (0=0%).

As for `CCOC(=O)c1nn(-c2ccc(OC(F)(F)F)cc2)c2cccc(S(=O)(=O)CC(F)(F)F)c2c1=O` [Compound P40, ethyl 4-oxo-5-(2,2,2-trifluoroethylsulfonyl)-1-[4-(trifluoromethoxy)phenyl]cinnoline-3-carboxylate], the “percentage damage caused to the plant, AMARE (five-point scale)” value in experiment [1] is listed as 1 (1=10-20%). Further, the “percentage damage caused to the plant, ZEAMX (five-point scale)” value in experiment [2] is 1 (1=10-20%). Also, in [3], the “percentage damage caused to the plant, SETFA (five-point scale)” value is recorded as 1 (1=10-20%). Besides, the “percentage damage caused to the plant, ABUTH (five-point scale)” value in experiment [4] was 1 (1=10-20%). In addition, in experiment [5], the “percentage damage caused to the plant, ECHCG (five-point scale)” value is on record as 1 (1=10-20%). For the same compound, in experiment [6], the “percentage damage caused to the plant, IPOHE (five-point scale)” value is given as 0 (0=0%). The “percentage damage caused to the plant, five-point scale, SETFA” value in experiment [7] is listed as 1 (1=10-20%). Besides, the “percentage damage caused to the plant, five-point scale, ECHCG” value in [8] is given as 0 (0=0%). Besides, the “percentage damage caused to the plant, five-point scale, ZEAMX” value in [9] is 1 (1=10-20%). Further, the “percentage damage caused to the plant, five-point scale, AMARE” value in experiment [10] is listed as 0 (0=0%). In addition, in experiment [11], the “percentage damage caused to the plant, five-point scale, ABUTH” value is 1 (1=10-20%). Further, the “percentage damage caused to the plant, five-point scale, IPOHE” value in experiment [12] is listed as 0 (0=0%).

As for `CS(=O)(=O)c1cccc2c1c(=O)c(C(=O)O)nn2-c1ccc(Cl)cc1F` [Compound P41, 1-(4-chloro-2-fluoro-phenyl)-5-methylsulfonyl-4-oxo-cinnoline-3-carboxylic acid], the “percentage damage caused to the plant, AMARE (five-point scale)” value in [1] was 1 (1=10-20%). In [2], the “percentage damage caused to the plant, ZEAMX (five-point scale)” value is given as 1 (1=10-20%). Also, the “percentage damage caused to the plant, SETFA (five-point scale)” value in experiment [3] is 4 (4=61-80%). In addition, in [4], the “percentage damage caused to the plant, ABUTH (five-point scale)” value is reported as 1 (1=10-20%). Also, the “percentage damage caused to the plant, ECHCG (five-point scale)” value in experiment [5] is 4 (4=61-80%). Also, the “percentage damage caused to the plant, IPOHE (five-point scale)” value in [6] was 1 (1=10-20%). For the same compound, the “percentage damage caused to the plant, five-point scale, SETFA” value in experiment [7] was 4 (4=61-80%). Moreover, the “percentage damage caused to the plant, five-point scale, ECHCG” value in experiment [8] is reported as 2 (2=21-40%). Also, the “percentage damage caused to the plant, five-point scale, ZEAMX” value in experiment [9] is listed as 1 (1=10-20%). Further, the “percentage damage caused to the plant, five-point scale, AMARE” value in experiment [10] is 1 (1=10-20%). The “percentage damage caused to the plant, five-point scale, ABUTH” value in experiment [11] was 1 (1=10-20%). Besides, in experiment [12], the “percentage damage caused to the plant, five-point scale, IPOHE” value is given as 1 (1=10-20%).

Consider `CCOC(=O)c1nn(-c2ccc(Cl)cc2F)c2cccc(S(C)(=O)=O)c2c1=O` [Compound P42, ethyl 1-(4-chloro-2-fluoro-phenyl)-5-methylsulfonyl-4-oxo-cinnoline-3-carboxylate], for which the “percentage damage caused to the plant, AMARE (five-point scale)” value in experiment [1] is 1 (1=10-20%). Moreover, the “percentage damage caused to the plant, ZEAMX (five-point scale)” value in experiment [2] is 1 (1=10-20%). Also, the “percentage damage caused to the plant, SETFA (five-point scale)” value in experiment [3] is reported as 4 (4=61-80%). Besides, the “percentage damage caused to the plant, ABUTH (five-point scale)” value in experiment [4] is 1 (1=10-20%). Moreover, the “percentage damage caused to the plant, ECHCG (five-point scale)” value in experiment [5] was 4 (4=61-80%). In experiment [6], the “percentage damage caused to the plant, IPOHE (five-point scale)” value was 1 (1=10-20%). The “percentage damage caused to the plant, five-point scale, SETFA” value in experiment [7] is reported as 4 (4=61-80%). Also, the “percentage damage caused to the plant, five-point scale, ECHCG” value in [8] is 3 (3=41-60%). In addition, the “percentage damage caused to the plant, five-point scale, ZEAMX” value in [9] is given as 0 (0=0%). Moreover, the “percentage damage caused to the plant, five-point scale, AMARE” value in experiment [10] is listed as 0 (0=0%). In experiment [11], the “percentage damage caused to the plant, five-point scale, ABUTH” value is recorded as 1 (1=10-20%). For the same compound, the “percentage damage caused to the plant, five-point scale, IPOHE” value in experiment [12] is 1 (1=10-20%).

`CS(=O)(=O)c1cccc2c1c(=O)c(C(=O)O)nn2-c1ccc(Cl)cc1Cl` [Compound P43, 1-(2,4-dichlorophenyl)-5-methylsulfonyl-4-oxo-cinnoline-3-carboxylic acid]: the “percentage damage caused to the plant, AMARE (five-point scale)” value in [1] was 1 (1=10-20%). The “percentage damage caused to the plant, ZEAMX (five-point scale)” value in experiment [2] is listed as 1 (1=10-20%). In [3], the “percentage damage caused to the plant, SETFA (five-point scale)” value is on record as 4 (4=61-80%). For the same compound, the “percentage damage caused to the plant, ABUTH (five-point scale)” value in experiment [4] is 2 (2=21-40%). The “percentage damage caused to the plant, ECHCG (five-point scale)” value in experiment [5] is 3 (3=41-60%). In addition, in experiment [6], the “percentage damage caused to the plant, IPOHE (five-point scale)” value is given as 1 (1=10-20%). Besides, the “percentage damage caused to the plant, five-point scale, SETFA” value in experiment [7] was 4 (4=61-80%). The “percentage damage caused to the plant, five-point scale, ECHCG” value in [8] is listed as 2 (2=21-40%). Also, the “percentage damage caused to the plant, five-point scale, ZEAMX” value in experiment [9] is 0 (0=0%). For the same compound, the “percentage damage caused to the plant, five-point scale, AMARE” value in experiment [10] is recorded as 0 (0=0%). For the same compound, in [11], the “percentage damage caused to the plant, five-point scale, ABUTH” value is listed as 0 (0=0%). The “percentage damage caused to the plant, five-point scale, IPOHE” value in [12] is 1 (1=10-20%).
